Laboratory results taken from patent US5668128A, “Aziridine derivatives, their production and use” (Takeda Chemical Industries, Ltd., priority 1994, dated 1997).
Structures can show the parent of a compound that is named as a salt.

What was measured:
[1] = target: T1, human recombinant cathepsin L (Homo sapiens, UniProt P07711); experiment: Determination of cathepsin L inhibitory activity; format: biochemical; conditions: pH 5.5, 37° C., 20 minutes, Z-Phe-Arg-7MCA substrate; read-out: Inhibitory activity potency IC50 (ng/ml) Cathepsin L (converted)
T1 construct: they were identified as a precursor of human cathepsin L and a product processed therefrom, estimated from these molecular weights; made in house; host or cells: mouse myeloma Sp2/0 cells transformed with pTBN-HCLneo (Sp-HCL26); purified from serum-free culture supernatant on CM-Sephadex C-50 and Mono S
Procedure: The bioactivities of the compounds of this invention are described below. The compounds [I] or salts thereof have activities of inhibiting cathepsin L and cathepsin B, and of potently inhibiting thiol protease. Their inhibitory activities against cathepsin L were determined by the methods described below.
Determination of cathepsin L inhibitory activity
To 75 μl of a reaction mixture containing 1 ng of human recombinant cathepsin L (as produced in Reference Examples 1 through 7 below), 2 μM of dithiothreitol (hereinafter abbreviated as DTT), 1 mM of ethylenediamine tetraacetate disodium salt, a 0.1M sodium acetate buffer solution (pH 5.5) and various concentrations of test samples, 25 μl of 20 μM benzyloxycarbonyl-L-phenylalanyl-L-arginine-4-methylcoumaryl-7-amide (hereinafter abbreviated as Z-Phe-Arg-7MCA, manufactured by Peptide Institute) was added to initiate the reaction. After incubation at 37° C. for 20 minutes, 100 μl of a reaction stopper solution containing 100 mM sodium monochloroacetate was added. The amount of liberated 4-methyl-7-aminocoumarin was determined at an excitation wavelength of 365 nm and a fluorescence wavelength of 450 nm, using a fluorophotometer (FCA:manufactured by Baxter Travenol). The sample concentration required to cause 50% inhibition was expressed as the IC50 value, with the fluorescence value obtained from the same reaction in the absence of the sample taken as 100%.

[2] = test system: mice; experiment: Toxicity study; format: in vivo; conditions: intravenously or intraperitoneally, 1,000 mg/kg
Procedure: Compound 4 caused no death in mice when it was intravenously or intraperitoneally administered at 1,000 mg/kg.

[3] = test system: bone resorption as enhanced by PTH (parathyroid hormone); experiment: Determination of bone resorption suppressive activity (PTH-stimulated mouse femur culture); format: cell-based, female BALB/c mice; conditions: 168 h, test compound 10 μg/ml, PTH 1 μM, cultured 7 days
Procedure: The compounds [I] or salts thereof of this invention show suppressive action against bone resorption as enhanced by PTH (parathyroid hormone), and the action was determined by method described below. Determination of bone resorption suppressive activity
Femurs were aseptically isolated from female BALB/c mice at 8-10 weeks of age. After the bone marrow cavity was washed with a Ham F12 medium containing 10 weight % thermally inactivated fetal calf serum, 100 unit/ml penicillin G and 100 unit/ml streptomycin (hereinafter referred to as culture broth), each femur was added to 1 ml of the culture broth and precultured for 3 hours at 37° C. in the presence of 5% carbon dioxide and 95% air. Each bone was transferred to 1 ml of the culture broth supplemented with PTH (manufactured by Peptide Institute, Inc., final concentration 1 μM) and the test compound (final concentration 10 μg/ml) and cultured for 7 more days, after which the total calcium content in the culture broth was determined using Calcium E-Test Wako (manufactured by Wako Pure Chemical Industries, Ltd.). The bone resorption suppressive activity of the test compound was calculated using the following equation.
Bone resorption suppressive activity (%)=100×(Cp-Cs)/(Cp-Cc)
Cc: Total calcium content in the culture broth containing neither PTH nor test compound
Cp: Total calcium content in the culture broth containing PTH […]

T1 sequence (P07711 114-333): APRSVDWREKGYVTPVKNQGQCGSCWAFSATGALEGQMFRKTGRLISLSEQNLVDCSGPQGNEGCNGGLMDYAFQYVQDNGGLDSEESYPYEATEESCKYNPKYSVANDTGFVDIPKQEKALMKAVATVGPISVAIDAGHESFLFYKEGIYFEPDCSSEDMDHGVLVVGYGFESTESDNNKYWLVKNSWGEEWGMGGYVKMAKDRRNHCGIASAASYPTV

SMILES | IC50 [1] | death in mice [2] | activity at 10 µg/mL [3]
CC(C)CCNC(=O)[C@H](Cc1ccccc1)NC(=O)[C@@H]1[C@@H](C(=O)O)N1C (stereo partly drawn) [Compound 43, N-[N-[(2S,3S)-N-Methyl-3-carboxyaziridine-2-carbonyl]-L-phenylalanyl]isopentylamine Sodium Salt] | 0.522 nM | – | –
CC(C)CCNC(=O)[C@H](Cc1ccccc1)NC(=O)[C@H]1N[C@@H]1C(=O)[O-].[Na+] [Compound 4, N-[N-[(2S,3S)-3-Carboxyaziridine-2-carbonyl]-L-phenylalanyl]isopentylamine sodium salt] | 13.5 nM | no death | –
CCN1[C@H](C(=O)O)[C@H]1C(=O)N[C@@H](Cc1ccccc1)C(=O)NCCC(C)C (stereo partly drawn) [Compound 45, N-[N-[(2S,3S)-N-Ethyl-3-Carboxyaziridine-2-carbonyl]-L-phenylalanyl]isopentylamine Sodium Salt] | 0.252 nM | – | –
NCCCCNC(=O)[C@H](Cc1ccccc1)NC(=O)[C@H]1N[C@@H]1C(=O)O [Compound 7, N-[N-[(2S,3S)-3-carboxyaziridine-2-carbonyl]-L-phenylalanyl]-1,4-diaminobutane] | 8.61 nM | – | 99%
